Experiments:
Format in all cases: biochemical
MAPK1(h) = MAPK1(h) (Homo sapiens, UniProt P27361); assay: Kinase Profiler
Description: (§1) The kinase profiler was performed by the company Eurofins (Discovery, Panlab and Cerep).

ARK5(h) = ARK5(h) (Homo sapiens, UniProt O60285); assay: Kinase Profiler
Description: (§2) Blood cell counts, kinase profiler, safety screen, bacterial cytotoxicity, Ames, micronucleus assays were performed by the company Eurofins (France). The kinase profiler was performed by the company Eurofins (Discovery, Panlab and Cerep).

CK1δ(h) = CK1δ(h) (Homo sapiens, UniProt P48730); assay: Kinase Profiler
Description: as §1

DRAK2(h) = DRAK2(h) (Homo sapiens, UniProt O94768); assay: Kinase Profiler
Description: as §2

CDC42 = CDC42 (Homo sapiens, UniProt P60953); assay: GEF-stimulated nucleotide exchange; set-up: Full-length RAC2, RHOG, RHOA and CDC42 were purified as previously described; made in house; TIAM DH-PH in E. coli Rosetta (DE3) pLysS; details: 10^-5 M
Source text: Figure 4 A41 selectively impairs RAC protein activation (A) Representative surface plasmon resonance (SPR) sensograms of binding of immobilized RHOA or CDC42 with indicated increasing concentrations of A41 (N > 3). (B) Effect of A41 on GEF-stimulated RAC2, RHOG, RHOA, and CDC42 nucleotide exchange. […] Kobs is expressed as mean ± SEM. ∗p < 0.001 vs. control. (C) Effect of A41 on RAC1 G30S activation. […] The GEF TRIO was used to induce nucleotide exchange (N = 3). Data are expressed as mean ± SEM. (D) Immunoblot analysis and associated quantification of RAC-GTP level and total RAC expression in NIH-3T3 fibroblasts expressing RAC wild-type (RAC1 WT) or RAC1 oncomutants (RAC1 P29S and RAC1b) in the absence (Ctrl) and presence of A41 (10 μM). RAC activation was measured as the ratio of RAC-GTP to total RAC and expressed relative to Ctrl condition. Data are presented as mean ± SEM. ∗∗∗p < 0.001 vs. controls.
Full-length RAC1 carrying a 6xHis tag in C-terminus was purified as previously described.[64] […] Specific exchange activity toward RHOA determined by fluorescence kinetics is 0.04 s^−1M^−1.
Nucleotide exchange kinetics were measured by recording the increase in fluorescence following the association of mant-GTP on GDP-bound RHO protein or the decay in fluorescence following the dissociation of mant-GDP pre-loaded onto the RHO protein (λEx = 360 nm, λEm = 440 nm) as previously described.[39] […]

MRCKα(h) = MRCKα(h) (Homo sapiens, UniProt Q5VT25); assay: Kinase Profiler
Description: as §1

WNK3(h) = WNK3(h) (Homo sapiens, UniProt Q9BYP7); assay: Kinase Profiler
Description: as §1

EphA2(h) = EphA2(h) (Homo sapiens, UniProt P29317); assay: Kinase Profiler
Description: as §2

PI3K e (p110a/p65a)(h) = PI3K e (p110a/p65a)(h) (Homo sapiens, UniProt P42336); assay: Kinase Profiler
Description: as §1

TGFBR2(h) = TGFBR2(h) (Homo sapiens, UniProt P37173); assay: Kinase Profiler
Description: as §2

PTK5(h) = PTK5(h) (Homo sapiens, UniProt P42685); assay: Kinase Profiler
Description: as §1

CK1γ1(h) = CK1γ1(h) (Homo sapiens, UniProt Q9HCP0); assay: Kinase Profiler
Description: as §2

PKD3(h) = PKD3(h) (Homo sapiens, UniProt O94806); assay: Kinase Profiler
Description: as §1

Bmx(h) = Bmx(h) (Homo sapiens, UniProt P51813); assay: Kinase Profiler
Description: as §2

CHK2(R145W)(h) = CHK2(R145W)(h) (Homo sapiens, UniProt O96017, R145W); assay: Kinase Profiler
Description: as §1

Flt3(h) = Flt3(h) (Homo sapiens, UniProt P36888); assay: Kinase Profiler
Description: as §1

Chain of EphA2(h) (P29317 24-976): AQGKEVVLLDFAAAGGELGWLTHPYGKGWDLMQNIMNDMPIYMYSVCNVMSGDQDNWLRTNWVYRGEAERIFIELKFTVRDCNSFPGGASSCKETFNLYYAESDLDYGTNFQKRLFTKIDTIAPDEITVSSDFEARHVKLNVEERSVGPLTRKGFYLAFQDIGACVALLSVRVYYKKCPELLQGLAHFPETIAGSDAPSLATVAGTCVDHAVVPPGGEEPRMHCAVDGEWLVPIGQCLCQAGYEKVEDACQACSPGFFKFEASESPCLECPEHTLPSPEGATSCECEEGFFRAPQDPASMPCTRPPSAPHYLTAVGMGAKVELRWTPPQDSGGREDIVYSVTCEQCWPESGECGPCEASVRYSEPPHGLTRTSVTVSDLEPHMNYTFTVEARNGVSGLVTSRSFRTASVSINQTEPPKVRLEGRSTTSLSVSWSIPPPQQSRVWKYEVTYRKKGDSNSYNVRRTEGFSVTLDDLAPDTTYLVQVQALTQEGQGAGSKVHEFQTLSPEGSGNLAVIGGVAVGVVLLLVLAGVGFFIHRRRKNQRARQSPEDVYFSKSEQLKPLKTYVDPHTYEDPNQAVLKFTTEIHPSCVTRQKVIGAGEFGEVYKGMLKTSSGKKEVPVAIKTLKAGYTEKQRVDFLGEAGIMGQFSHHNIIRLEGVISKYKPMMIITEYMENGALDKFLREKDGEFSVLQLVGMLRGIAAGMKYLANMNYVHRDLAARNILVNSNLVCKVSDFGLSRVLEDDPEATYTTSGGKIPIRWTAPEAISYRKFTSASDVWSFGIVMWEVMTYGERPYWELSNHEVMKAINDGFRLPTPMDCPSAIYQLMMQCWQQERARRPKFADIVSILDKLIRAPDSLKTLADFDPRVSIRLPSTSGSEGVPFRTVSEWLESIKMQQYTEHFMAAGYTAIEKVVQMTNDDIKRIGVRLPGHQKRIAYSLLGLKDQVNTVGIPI
Chain of PI3K e (p110a/p65a)(h) (P42336 whole entry): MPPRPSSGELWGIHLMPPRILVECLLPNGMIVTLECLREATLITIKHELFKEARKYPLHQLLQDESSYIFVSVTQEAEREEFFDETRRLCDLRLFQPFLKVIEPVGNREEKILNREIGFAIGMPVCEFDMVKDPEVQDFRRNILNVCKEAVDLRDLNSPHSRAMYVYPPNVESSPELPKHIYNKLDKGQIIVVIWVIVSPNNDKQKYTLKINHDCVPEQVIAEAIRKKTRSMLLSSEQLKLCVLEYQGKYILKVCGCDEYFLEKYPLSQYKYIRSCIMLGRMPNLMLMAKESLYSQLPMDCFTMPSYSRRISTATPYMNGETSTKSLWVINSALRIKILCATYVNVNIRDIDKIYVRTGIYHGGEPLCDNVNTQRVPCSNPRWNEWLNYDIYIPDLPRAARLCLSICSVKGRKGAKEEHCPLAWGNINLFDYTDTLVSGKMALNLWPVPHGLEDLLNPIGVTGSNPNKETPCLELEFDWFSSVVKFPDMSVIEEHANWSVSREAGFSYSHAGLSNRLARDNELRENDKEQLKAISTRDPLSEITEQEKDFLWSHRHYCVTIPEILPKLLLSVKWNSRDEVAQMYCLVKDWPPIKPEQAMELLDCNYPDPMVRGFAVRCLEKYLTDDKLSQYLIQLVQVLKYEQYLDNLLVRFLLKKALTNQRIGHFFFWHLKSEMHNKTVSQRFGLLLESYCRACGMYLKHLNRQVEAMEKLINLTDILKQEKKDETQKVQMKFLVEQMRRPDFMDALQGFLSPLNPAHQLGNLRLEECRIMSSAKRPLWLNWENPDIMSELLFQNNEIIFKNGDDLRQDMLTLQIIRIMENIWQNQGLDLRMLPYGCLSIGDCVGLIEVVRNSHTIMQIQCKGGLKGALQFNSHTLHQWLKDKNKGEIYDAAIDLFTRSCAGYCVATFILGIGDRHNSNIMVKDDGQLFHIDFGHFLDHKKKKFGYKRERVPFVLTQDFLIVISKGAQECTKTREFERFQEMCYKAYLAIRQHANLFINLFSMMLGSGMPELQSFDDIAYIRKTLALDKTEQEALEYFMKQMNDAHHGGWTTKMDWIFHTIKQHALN
Chain of PI3K e (p110a/p65a)(h) (P27986 1-571 partner limits assumed): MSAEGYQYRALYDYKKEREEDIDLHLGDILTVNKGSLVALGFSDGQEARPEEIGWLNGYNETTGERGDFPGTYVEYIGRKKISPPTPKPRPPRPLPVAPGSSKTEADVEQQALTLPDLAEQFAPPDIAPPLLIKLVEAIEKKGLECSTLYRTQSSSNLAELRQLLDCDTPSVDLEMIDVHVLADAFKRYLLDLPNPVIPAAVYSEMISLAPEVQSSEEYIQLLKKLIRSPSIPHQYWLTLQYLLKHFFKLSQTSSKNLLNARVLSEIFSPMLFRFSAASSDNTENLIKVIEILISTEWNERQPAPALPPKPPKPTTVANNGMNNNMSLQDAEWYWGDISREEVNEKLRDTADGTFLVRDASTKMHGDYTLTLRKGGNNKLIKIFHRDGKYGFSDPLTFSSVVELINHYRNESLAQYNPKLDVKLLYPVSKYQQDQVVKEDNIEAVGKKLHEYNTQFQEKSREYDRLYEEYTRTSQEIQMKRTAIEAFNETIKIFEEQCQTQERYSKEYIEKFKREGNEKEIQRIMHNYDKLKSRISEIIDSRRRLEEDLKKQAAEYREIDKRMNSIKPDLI
Chain of Bmx(h) (P51813 whole entry): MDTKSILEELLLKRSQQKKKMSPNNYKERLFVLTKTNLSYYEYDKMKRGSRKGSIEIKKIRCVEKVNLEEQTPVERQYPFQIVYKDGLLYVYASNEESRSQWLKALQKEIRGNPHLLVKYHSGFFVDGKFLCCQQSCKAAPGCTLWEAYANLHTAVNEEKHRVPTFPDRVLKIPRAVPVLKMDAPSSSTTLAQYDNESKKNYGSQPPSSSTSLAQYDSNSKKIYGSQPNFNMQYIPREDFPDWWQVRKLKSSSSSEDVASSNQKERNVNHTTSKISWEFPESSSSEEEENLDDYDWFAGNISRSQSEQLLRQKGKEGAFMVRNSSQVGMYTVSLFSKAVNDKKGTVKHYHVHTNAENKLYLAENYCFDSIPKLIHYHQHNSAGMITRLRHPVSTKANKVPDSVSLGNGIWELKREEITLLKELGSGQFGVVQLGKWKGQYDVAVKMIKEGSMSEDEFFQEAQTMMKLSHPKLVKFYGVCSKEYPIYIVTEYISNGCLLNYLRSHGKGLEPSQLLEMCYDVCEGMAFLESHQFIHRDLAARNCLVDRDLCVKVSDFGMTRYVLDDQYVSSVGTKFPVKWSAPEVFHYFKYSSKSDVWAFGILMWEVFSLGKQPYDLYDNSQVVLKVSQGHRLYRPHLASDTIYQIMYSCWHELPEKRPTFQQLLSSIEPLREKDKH
Chain of MAPK1(h) (P27361 whole entry): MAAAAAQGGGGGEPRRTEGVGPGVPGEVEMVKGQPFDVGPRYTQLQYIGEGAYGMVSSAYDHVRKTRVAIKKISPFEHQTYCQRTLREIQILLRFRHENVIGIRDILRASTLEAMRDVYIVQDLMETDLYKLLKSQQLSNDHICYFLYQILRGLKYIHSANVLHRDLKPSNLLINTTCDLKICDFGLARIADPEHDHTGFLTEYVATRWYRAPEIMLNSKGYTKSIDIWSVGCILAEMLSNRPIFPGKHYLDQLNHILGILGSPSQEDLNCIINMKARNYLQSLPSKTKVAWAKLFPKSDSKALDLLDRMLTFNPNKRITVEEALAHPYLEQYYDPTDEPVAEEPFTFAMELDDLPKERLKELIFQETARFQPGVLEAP
Chain of CHK2(R145W)(h) (O96017 whole entry R145W): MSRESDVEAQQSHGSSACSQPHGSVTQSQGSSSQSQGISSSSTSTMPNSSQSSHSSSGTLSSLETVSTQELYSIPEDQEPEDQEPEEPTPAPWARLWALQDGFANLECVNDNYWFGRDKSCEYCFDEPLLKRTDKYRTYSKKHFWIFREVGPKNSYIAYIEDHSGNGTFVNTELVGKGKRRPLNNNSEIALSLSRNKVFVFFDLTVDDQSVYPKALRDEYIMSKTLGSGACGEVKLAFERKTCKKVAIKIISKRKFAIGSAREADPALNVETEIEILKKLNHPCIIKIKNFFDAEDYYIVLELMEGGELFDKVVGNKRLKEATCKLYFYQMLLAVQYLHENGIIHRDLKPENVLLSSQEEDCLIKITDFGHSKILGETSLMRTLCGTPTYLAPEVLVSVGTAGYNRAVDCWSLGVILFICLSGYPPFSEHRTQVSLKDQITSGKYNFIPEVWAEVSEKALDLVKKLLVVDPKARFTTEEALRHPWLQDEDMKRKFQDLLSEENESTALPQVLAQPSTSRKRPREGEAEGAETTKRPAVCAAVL
Chain of ARK5(h) (O60285 whole entry): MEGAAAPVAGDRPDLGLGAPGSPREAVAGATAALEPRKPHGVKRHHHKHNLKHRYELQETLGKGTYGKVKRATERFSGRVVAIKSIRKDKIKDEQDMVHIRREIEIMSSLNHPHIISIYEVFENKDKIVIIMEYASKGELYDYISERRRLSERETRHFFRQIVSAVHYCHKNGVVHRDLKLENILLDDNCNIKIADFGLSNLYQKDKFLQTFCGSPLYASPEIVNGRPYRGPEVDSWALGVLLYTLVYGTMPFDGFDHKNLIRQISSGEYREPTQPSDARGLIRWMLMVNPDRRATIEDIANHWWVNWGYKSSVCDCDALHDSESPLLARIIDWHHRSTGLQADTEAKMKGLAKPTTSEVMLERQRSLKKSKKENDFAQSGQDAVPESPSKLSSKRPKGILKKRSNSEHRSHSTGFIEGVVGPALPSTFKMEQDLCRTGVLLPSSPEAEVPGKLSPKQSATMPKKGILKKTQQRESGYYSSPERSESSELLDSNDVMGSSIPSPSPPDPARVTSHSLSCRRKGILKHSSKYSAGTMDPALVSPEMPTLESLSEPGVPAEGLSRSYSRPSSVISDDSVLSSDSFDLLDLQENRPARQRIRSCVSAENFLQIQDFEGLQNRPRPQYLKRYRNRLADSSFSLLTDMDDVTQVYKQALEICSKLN
Chain of CDC42 (P60953 whole entry): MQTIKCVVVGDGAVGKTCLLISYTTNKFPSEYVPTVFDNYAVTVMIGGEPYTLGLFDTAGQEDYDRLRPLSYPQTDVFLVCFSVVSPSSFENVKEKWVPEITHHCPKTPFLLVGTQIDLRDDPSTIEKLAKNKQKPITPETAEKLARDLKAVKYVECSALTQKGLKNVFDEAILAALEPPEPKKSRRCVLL

COc1ccc(OC)c(NS(=O)(=O)c2ccc(NC(=O)CCSc3ccc(C)cc3)cc2)c1 [Compound A41]
Activity(%) (MAPK1(h)): 103% | Activity(%) (ARK5(h)): 106% | Activity(%) (CK1δ(h)): 96% | Activity(%) (DRAK2(h)): 90% | activation of CDC42 induced by TIAM DH-PH (CDC42): did not change the activation | Activity(%) (MRCKα(h)): 109% | Activity(%) (WNK3(h)): 101% | Activity(%) (EphA2(h)): 98% | Activity(%) (PI3K e (p110a/p65a)(h)): 102% | Activity(%) (TGFBR2(h)): 99% | Activity(%) (PTK5(h)): 113% | Activity(%) (CK1γ1(h)): 106% | Activity(%) (PKD3(h)): 104% | Activity(%) (Bmx(h)): 124% | Activity(%) (CHK2(R145W)(h)): 92% | Activity(%) (Flt3(h)): 98%

Source: PMC12281424, “A Rac-specific competitive inhibitor of guanine nucleotide binding reduces metastasis in triple-negative breast cancer” (Cell Reports Medicine, 2025)
